Source: ChEMBL document CHEMBL3351361, “Fragment-based screening of the bromodomain of ATAD2” (J Med Chem, 2014)

Molecular target: T1, ATPase family AAA domain-containing protein 2 (Homo sapiens, UniProt Q6PL18)
T1 sequence (Q6PL18 whole entry): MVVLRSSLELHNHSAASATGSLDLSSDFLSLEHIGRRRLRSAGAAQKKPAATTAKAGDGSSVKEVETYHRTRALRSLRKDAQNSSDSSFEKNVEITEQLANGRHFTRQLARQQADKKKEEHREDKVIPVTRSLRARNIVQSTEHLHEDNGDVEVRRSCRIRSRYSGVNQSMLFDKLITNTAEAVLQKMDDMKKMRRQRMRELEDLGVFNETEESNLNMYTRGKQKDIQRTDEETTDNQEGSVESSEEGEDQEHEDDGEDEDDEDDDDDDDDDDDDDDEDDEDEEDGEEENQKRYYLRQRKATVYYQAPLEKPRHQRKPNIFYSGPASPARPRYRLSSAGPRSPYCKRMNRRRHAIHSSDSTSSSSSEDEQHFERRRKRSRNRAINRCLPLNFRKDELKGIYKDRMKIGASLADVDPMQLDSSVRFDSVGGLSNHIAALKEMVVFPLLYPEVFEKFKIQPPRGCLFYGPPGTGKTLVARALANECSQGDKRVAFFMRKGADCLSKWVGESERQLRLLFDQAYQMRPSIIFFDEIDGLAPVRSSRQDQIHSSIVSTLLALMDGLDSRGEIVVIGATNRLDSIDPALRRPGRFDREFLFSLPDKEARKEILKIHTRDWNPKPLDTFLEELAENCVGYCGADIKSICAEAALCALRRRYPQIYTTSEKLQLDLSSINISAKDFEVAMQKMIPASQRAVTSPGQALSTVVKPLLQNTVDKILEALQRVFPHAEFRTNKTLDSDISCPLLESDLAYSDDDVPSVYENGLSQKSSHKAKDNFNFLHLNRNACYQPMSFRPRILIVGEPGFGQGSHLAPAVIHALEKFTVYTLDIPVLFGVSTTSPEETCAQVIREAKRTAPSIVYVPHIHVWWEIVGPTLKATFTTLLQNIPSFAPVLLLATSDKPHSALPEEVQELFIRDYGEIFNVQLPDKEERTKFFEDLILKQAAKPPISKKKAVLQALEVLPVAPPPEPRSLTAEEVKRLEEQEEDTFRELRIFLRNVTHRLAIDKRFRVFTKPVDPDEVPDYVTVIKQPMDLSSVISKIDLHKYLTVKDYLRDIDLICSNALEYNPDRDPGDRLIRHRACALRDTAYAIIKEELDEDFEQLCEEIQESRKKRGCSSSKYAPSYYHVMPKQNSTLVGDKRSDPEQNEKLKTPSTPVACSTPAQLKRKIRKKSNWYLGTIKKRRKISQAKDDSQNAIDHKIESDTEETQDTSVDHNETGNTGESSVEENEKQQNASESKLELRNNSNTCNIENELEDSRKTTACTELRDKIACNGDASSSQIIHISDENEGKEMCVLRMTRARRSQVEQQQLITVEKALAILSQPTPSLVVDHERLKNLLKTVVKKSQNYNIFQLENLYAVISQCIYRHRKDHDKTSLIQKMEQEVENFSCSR
Assay: Binding affinity to human ATAD2 (979 to 1108 aa) expressed in Escherichia coli BL21 (DE3) by SOFAST-HMQC NMR spectroscopy

Compound	Kd
Cc1cc2c(cc1N)n(C)c(=O)n2C	600 µM
Nc1cccc(-c2n[nH]c(-c3ccccc3)n2)c1	350 µM
